Read-outs that look alike come from different tables or passages of the source.
Experiments:
[1] = system: Escherichia coli ATCC 25922; assay: Luminescence of culture samples after addition of Compound Va with 15% v/v ethanol; assay type: cell-based; conditions: for Signal to noise ratio, LB1:20 (to sterile) / RLU, 6 h LB / RLU, 6 h LB1:20: E.c.; for RLU, 6 h LB / RLU, 6 h LB1:20: 20 μM, 15% v/v ethanol, 9-10 min after addition
Procedure: (§1) Escherichia coli ATCC 25922 (E.c., beta-galactosidase positive) and Salmonella Enteritidis RKI 05/07992 (S.E., beta-galactosidase negative) were cultivated in Nutrient Broth for 17 h and then serially diluted in sterile saline (0.9% NaCl). Diluted cell suspensions were inoculated 1:100 v/v in test tubes with either full-strength LB medium (10 g/L tryptone, 5 g/L yeast extract, 5 g/L NaCl) or LB medium diluted 1:20 v/v with ultrapure water (LB1:20). All media contained 1 mM IPTG for induction of beta-galactosidase. Sterile saline was added to negative control tubes. After 6 h of cultivation at 37° C. and 150 rpm, samples (0.255 mL) were withdrawn from cultures and mixed with 45 μL stock solution of compound Va in ethanol in a white microtiter plate. […] For comparison, the same E. coli strain was pre-cultured and diluted in a similar way and then inoculated in diluted Mueller-Hinton broth (MH1:20, full-strength medium diluted 1:20 v/v with 20 mM phosphate buffer pH 7.2). The medium was supplemented with 1 mM IPTG. After 6 h of cultivation at 37° C. and 150 rpm, culture samples (45 μL) were transferred to a microtiter plate and mixed with 5 μL of 10x lysis reagent which contained 2% w/v dodecyl-trimethylammonium bromide, 1 mM D-Luciferin-6-O-beta-D-galactopyranoside (commercially available, Biosynth Cat. No. L-8600) and 10 mM magnesium chloride. Lysis and reaction with D-Luciferin-6-O-beta-D-galactopyranoside was carried out for 1 h at 37° C. Then 0.2 mL of luciferase assay mix was added (5:1 v/v). The assay mix contained 62.5 mM Tris acetate (pH 7.8), 12.5 mM magnesium sulfate, 2.5 g/L bovine serum albumin, 7.5 mM D/L-cysteine, 1.25 mM ethylene diamine tetraacetate, 25 μM sodium pyrophosphate, 10 g/L cyclodextrin, 1.25 mM adenosine 5-triphosphate and 13.1 μg/mL commercially available Photinus pyralis luciferase (recombinant). Light emission was recorded with a SpectraMax M5 plate reader.

[2] = system: Salmonella Enteritidis RKI 05/07992; assay: as above; assay type: cell-based; conditions: S.E., inoculation density 10^6 CFU/mL
Procedure: as §1

[3] = system: Salmonella Enteritidis RKI 05/07992; assay: Luminescence of cultures containing D-luciferin-6-O-phenyl-caprylate after mixing with luciferase assay mix; assay type: cell-based, Salmonella enterica ssp. enterica ser. Enteritidis; conditions: S.E.; for RLU, 6 h: 0.1 mM in Nutrient Broth, first 3 min after luciferase assay mix
Procedure: D-luciferin-6-O-phenyl-caprylate was synthesized according to procedures known to persons skilled in the art. Salmonella Enteritidis RKI 05/07992 (S.E., Salmonella enterica ssp. enterica ser. Enteritidis, C8 esterase positive) was cultivated in Nutrient Broth (5 g/L peptone, 5 g/L NaCl, 2 g/L […], 1 g/L […], pH 7.4) for 16 h and then serially diluted in sterile saline (0.9% NaCl). Diluted cell suspensions were inoculated 1:100 v/v in test tubes with Nutrient Broth containing 0.1 mM D-luciferin-6-O-phenyl-caprylate. […] Light emission was recorded with a plate reader equipped with a luminescence detection system. Mean RLU (relative light unit) values of first 3 min after addition of luciferase assay mix were compared (Table VII).

[4] = system: Escherichia coli ATCC 25922; assay: Luminescence of culture samples of carbapenem resistant and sensitive bacteria after addition of compound VIIa; assay type: cell-based; conditions: E.c.; for RLU max. (with 10 μM VI): 6 h culture, 30 min recording
Procedure: (§2) Carbapenem resistant bacterial strains Pseudomonas aeruginosa RKI 48/09 (IMP-2) (P.a.-Imp^R) and Klebsiella pneumoniae RKI 92/08 (KPC-2) (K.p.-Imp^R) were cultivated on trypticase soy agar supplemented with 8 mg/L and […] imipenem, respectively. Carbapenem sensitive strain Escherichia coli ATCC 25922 (E.c.) was cultivated on trypticase soy agar. Nutrient broth (for composition and pH see previous examples, 3 mL in 15 mL tubes) with and without imipenem was inoculated with imipenem resistant and sensitive bacteria from agar plates. Tube cultures were incubated for 6 h at 37° C. and 150 rpm. Culture samples (0.255 mL) were transferred to wells of a white microtiter plate and mixed with 45 μL stock solution of compound Vila in ethanol. Final concentrations of compound Vila, ethanol and dimethyl sulfoxide were 10 μM, […] and 1% v/v, respectively. Luminescence was recorded after addition of […] for 30 min with a plate reader.

[5] = system: Klebsiella pneumoniae RKI 92/08 (KPC-2); assay type: cell-based; conditions: K.p.-Imp^R; for RLU max. (with 10 μM VI): 6 h culture, 30 min recording
Procedure: as §2

[6] = system: Pseudomonas aeruginosa RKI 48/09 (IMP-2); assay type: cell-based; conditions: P.a.-Imp^R; for RLU max. (with 10 μM VI): 6 h culture, 30 min recording
Procedure: as §2

[7] = system: Escherichia coli ATCC 25922; conditions: E.c.; for Signal to noise ratio (to sterile): MH1:20; for RLU, 6 h MH1:20: first two minutes of measurement
Procedure: as §1

[8] = inoculation density 10^2 CFU/mL
[9] = inoculation density 10^3 CFU/mL
[10] = inoculation density 10^4 CFU/mL
[11] = inoculation density 10^5 CFU/mL
[12] = inoculation density 10^6 CFU/mL
[13] = 20 μM, 15% v/v ethanol, 9-10 min after addition
[14] = imipenem 4 mg/L in nutrient broth

COC(=O)/C=C/c1ccc(C2(OC)OOC23C2CC4CC(C2)CC3C4)c(Cl)c1OCc1ccc(OC2OC(CO)C(O)C(O)C2O)cc1 (centres unmarked) [Compound Va]
Signal to noise ratio, LB1:20 (to sterile) [1, 8]: 14 | RLU, 6 h LB [1, 8]: 551 RLU | RLU, 6 h LB1:20 [1, 8]: 1369 RLU | Signal to noise ratio, LB1:20 (to sterile) [1, 9]: 79 | RLU, 6 h LB [1, 9]: 3317 RLU | RLU, 6 h LB1:20 [1, 9]: 7690 RLU | Signal to noise ratio, LB1:20 (to sterile) [1, 10]: 1085 | RLU, 6 h LB [1, 10]: 49434 RLU | RLU, 6 h LB1:20 [1, 10]: 105252 RLU | Signal to noise ratio, LB1:20 (to sterile) [1, 11]: 1698 | RLU, 6 h LB [1, 11]: 43412 RLU | RLU, 6 h LB1:20 [1, 11]: 164721 RLU | Signal to noise ratio, LB1:20 (to sterile) [1, 12]: 871 | RLU, 6 h LB [1, 12]: 18830 RLU | RLU, 6 h LB1:20 [1, 12]: 84511 RLU | signal to noise ratio higher than with D-Luciferin-6-O-beta-D-galactopyranoside ([1]; lowest tested inoculation density of E. coli, 5-fold lower working concentration): 9 fold | Signal to noise ratio, LB1:20 (to sterile) [2]: 1 | RLU, 6 h LB [2, 13]: 66 RLU | RLU, 6 h LB1:20 [2, 13]: 125 RLU

CCCCCCCC(=O)Oc1ccc(COc2ccc3nc(C4=N[C@@H](C(=O)O)CS4)sc3c2)cc1 [D-luciferin-6-O-phenyl-caprylate]
Signal to noise ratio (to sterile) [3, 8]: 1.1 | RLU, 6 h [3, 8]: 18354 RLU | Signal to noise ratio (to sterile) [3, 10]: 1.6 | RLU, 6 h [3, 10]: 27783 RLU | Signal to noise ratio (to sterile) [3, 12]: 24 | RLU, 6 h [3, 12]: 417195 RLU

C[C@@H](O)[C@H]1C(=O)N2C(C(=O)O)=C(SCCN=CN)C[C@H]12 [Imipenem, imipenem, reference compound]
OD600 6 h [4, 14]: 0.01 | OD600 6 h [5, 14]: 0.50 | OD600 6 h ([6]; imipenem 8 mg/L in nutrient broth): 0.48

COC(=O)/C=C/c1ccc(C2(OC)OOC23C2CC4CC(C2)CC3C4)c(Cl)c1OCc1ccc(C2=C(C(=O)O)N3C(=O)[C@H]([C@@H](C)O)[C@H]3[C@H]2C)cc1 (stereo partly drawn) [VIIa, (4S,5R,6S)-3-(4-((2-Chloro-6-((E)-3-methoxy-3-oxoprop-1-en-1-yl)-3-((1r,3r,5S,7S)-4′-methoxyspiro[adamantane-2,3′-[1,2]dioxetan]-4′-yl)phenoxy)methyl)phenyl)-6-((R)-1-hydroxyethyl)-4-methyl-7-oxo-1-azabicyclo[3.2.0]hept-2-ene-2-carboxylicacid]
RLU max. (with 10 μM VI) ([4]; imipenem 0 mg/L): 8181 RLU | RLU max. (with 10 μM VI) ([4]; imipenem 4 mg/L): 7992 RLU | Signal to noise ratio (to E.c.) ([5]; imipenem 0 mg/L): 8.9 | RLU max. (with 10 μM VI) ([5]; imipenem 0 mg/L): 72951 RLU | Signal to noise ratio (to E.c.) ([5]; imipenem 4 mg/L): 8.8 | RLU max. (with 10 μM VI) ([5]; imipenem 4 mg/L): 72272 RLU | Signal to noise ratio (to E.c.) ([6]; imipenem 0 mg/L): 2.4 | RLU max. (with 10 μM VI) ([6]; imipenem 0 mg/L): 19940 RLU | Signal to noise ratio (to E.c.) ([6]; imipenem 8 mg/L): 2.6 | RLU max. (with 10 μM VI) ([6]; imipenem 8 mg/L): 21028 RLU

D-Luciferin-6-O-beta-D-galactopyranoside
Signal to noise ratio (to sterile) [7, 8]: 1.5 | RLU, 6 h MH1:20 [7, 8]: 13367 RLU | Signal to noise ratio (to sterile) [7, 10]: 377 | RLU, 6 h MH1:20 [7, 10]: 3306967 RLU | Signal to noise ratio (to sterile) [7, 12]: 544 | RLU, 6 h MH1:20 [7, 12]: 4777613 RLU

Reference: patent US11649475B2, “Dioxetane compounds and their use for the detection of microorganisms” (NEMIS Technologies AG, priority 2018, dated 2023)
